Assay: Acid dissociation constant (pKa) by titration with sodium hydroxide, pH meter, in water/methanol 1:1
Type: physicochemical
Procedure: In Table 1, the acid dissociation constant of a compound was measured by the following method:
A commercially available pH meter "HORIBA N-8F" (Trademark), made by Horiba Ltd., equipped with three composite electrodes, was calibrated by using the following two solutions:
Water/methanol solution (with a volume ratio of 1:1) containing 0.05 mol/l potassium hydrogenphthalate.
Water/methanol solution (with a volume ratio of 1:1) containing 0.01 mol/l tris(hydroxy)aminomethane and 0.01 mol/l tris(hydroxy)aminomethane hydrochloride.
Then, a solution A was prepared in such a manner that 0.4969 g of 4-(4'-phenoxybutoxy)phthalic acid (Compound No. 1 in Table 1) and 0.5844 g of sodium chloride,were dissolved in a mixed solvent consisting of 50 ml of water and 50 ml of methanol.
In addition, a 0.1068 mol/l sodium hydroxide aqueous solution was prepared by standardizing the solution with potassium hydrogen-phthalate. This solution was hereinafter referred to as a solution B.
The solution A was placed in a beaker and stirred with a stirrer. The solution B was added dropwise in an amount of 0.5 to 1.0 ml to the solution A, with stirring, through a buret. When the pH of the solution A reached a constant value, the pH was measured. The pH was further measured with further addition of the solution B to the solution A, so that a titration curve was obtained. This titration curve was fitted in a theoretical formula by using a computer program, so that an acid dissociation constant of the compound No. 1 was calculated.

[1] = comparative color developer, solvent not given
[2] = mixed solvent of water and methanol, volume ratio 1:1

Q: With CC(C)Oc1ccc(S(=O)(=O)c2ccc(O)cc2)cc1 [4-isopropoxy-4'-hydroxydiphenylsulfone] as the compound, how does the “acid dissociation constant pKa” value [1] read?
A: 8.27

Q: With O=C(O)c1ccc(OCCCCOc2ccccc2)cc1C(=O)O [Compound No. 1, 4-(4'-phenoxybutoxy)phthalic acid] as the compound, how does the “Acid Dissociation Constant pKa1” value [2] read?
A: 3.55

Q: And the “acid dissociation constant pKa2” value [2]?
A: 6.59

Q: With CC(C)(c1ccc(O)cc1)c1ccc(O)cc1 [4,4'-isopropylidene diphenol] as the compound, how does the “acid dissociation constant pKa1 (printed pKal)” value [1] read?
A: ~10.7

Q: And the “acid dissociation constant pKa2” value [1]?
A: 10.7
